The results in this text go back to patent US20230059009A1, “INHIBITORS OF LIN28 AND METHODS OF USE THEREOF” (The Regents of the University of California, priority 2019, published 2023).

The structures appear in SMILES notation.

Assay [1] deals with T1, LIN28B/pre-let-7a-2 binding (Homo sapiens, UniProt Q6ZN17).
T1 construct: made in house; host or cells: stably transduced HEK cells; used as diluted protein lysate, not purified
T1 sequence (Q6ZN17 1-250): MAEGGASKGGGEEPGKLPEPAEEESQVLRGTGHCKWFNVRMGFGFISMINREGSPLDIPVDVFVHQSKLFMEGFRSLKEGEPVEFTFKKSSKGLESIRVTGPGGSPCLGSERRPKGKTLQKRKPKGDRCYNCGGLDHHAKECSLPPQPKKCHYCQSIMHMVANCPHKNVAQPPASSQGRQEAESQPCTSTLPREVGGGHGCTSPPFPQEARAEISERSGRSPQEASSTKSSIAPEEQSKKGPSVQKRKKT
Briefly: FRET assay, EGFP-tagged LIN28B and BHQ-1 labelled pre-let-7a-2. The settings on record: doses 1.25 uM-20 uM; compared with LN1632. The protocol:
As described herein, compounds of formula (I) and (II) show Lin28/let-7 inhibitory activity in FRET assays in vitro and in LSCs and LSC-like Kasumi-1 cells. FRET assay was performed as previously described (51).
In order to improve binding and inhibitory capacity of a compound to LIN28b, we predicted the binding mode of LN1632 to LIN28B. […] With this model in hand, we synthesized novel compounds with improved binding capacity to Lin28b (JGJ002-JGJ008, FIG. 8). Compounds were screened using a previously described FRET-assay with an EGFP-tagged LIN28B as donor and a BHQ-1 quencher labelled pre-let-7a-2 (pre-let-7a-2-BHQ1) as acceptor (51). Briefly, recombinant LIN28B-EGFP was harvested from stably transduced HEK cells and diluted with binding buffer (300 mM NaCl, 25 mM HEPES pH 7.2, 10 μM ZnCl2, 1% Odyssey Blocking Buffer, 0.05% Tween 20, 0.5 mM TCEP) in order to adjust ideal FRET-quenching signal intensity. Protein lysate and compounds (JGJ001-JGJ008) were pre-incubated in doses ranging from 1.25 uM-20 uM for 20 min in 100 uL diluted protein lysate. Subsequently pre-let-7a-2-BHQ1 was added to the mixture (at 6.25 nM) and EGFP-LIN28B donor emission was measured using a Tecan Spark Plate Reader ([…], excitation at 488 nm, emission read-out at […], 30 flashes/s). […] Increased endogenous let-7 miRNA levels can target a panoply of LCS and cancer stem cell hallmark genes thus inhibiting tumor growth.
To test the structure-activity relationship, 39 LN1632-related analogs (JGJ001-39) were synthesized and their potency and specificity to inhibit LIN28B-RNA binding activity and upregulate mature let-7 miRNA levels was measured. […] The dual luciferase reporter assay was performed as previously described (89).

For the next assay, the system named is SW620. Briefly: Cell viability, CTG, SW620. The assay is classed as cell-based. The following applies: SW620 (Colon). As for the experimental part:
To measure cell viability, cell titer glow (CTG, Promega CellTiter-Glo 2.0 Assay) and MTT assays (SigmaAldrich, Cell Proliferation Kit I) were performed. Briefly, cells were serum starved overnight prior to seeding in 96-well plates. Following 24 h incubation, cells were treated with increasing concentrations of JGJ compounds for 96 hr. At assay read-out, CellTiter-Glo reagent was added and luminescence was measured after 10-minutes incubation at room temperature. For the MTT assay, MTT labeling reagent was added and incubated for 4 h. Subsequently, medium was removed and 50 μL DMSO was added to solubilize the crystals, and absorbance was measured at 570 nm. Cell viability was calculated as (Sample-Background)/(Control-Background). Current standard of care drugs, Enzalutamide, Palbociclib and Cetuximab were used as comparative controls.

Assay [2] has as its system let-7a/b and let-7 target genes. In words: miRNA and let-7 target gene expression in primary AML patient cells. Format: cell-based, human. The settings on record: primary AML cells from three relapsed patients; 80-120 μM, 72 h. From the text:
To measure the complete degree to which LN1632 regulates gene expression, we carried out RNA sequencing (RNAseq) in LSC-like Kasumi-1 cells. […] Importantly, we confirmed this gene expression pattern in primary AML cells from three relapsed patients (validated for LIN28B overexpression compared to healthy WBM). […] This is important because NFκB1, regulated by let-7 through IL6 (23) is, together with other BCL-2 family members (BAX, BCL2L15 and BMF, FIG. 5A), a well characterized gene associated with unique properties of LSC survival and AML relapse (45, 59, 60). […] We next explored the effect of LN1632 on primary AML cells.

The target in the next assay is T2, PRPF31 (Homo sapiens, UniProt Q8WWY3).
T2 sequence (Q8WWY3 1-499): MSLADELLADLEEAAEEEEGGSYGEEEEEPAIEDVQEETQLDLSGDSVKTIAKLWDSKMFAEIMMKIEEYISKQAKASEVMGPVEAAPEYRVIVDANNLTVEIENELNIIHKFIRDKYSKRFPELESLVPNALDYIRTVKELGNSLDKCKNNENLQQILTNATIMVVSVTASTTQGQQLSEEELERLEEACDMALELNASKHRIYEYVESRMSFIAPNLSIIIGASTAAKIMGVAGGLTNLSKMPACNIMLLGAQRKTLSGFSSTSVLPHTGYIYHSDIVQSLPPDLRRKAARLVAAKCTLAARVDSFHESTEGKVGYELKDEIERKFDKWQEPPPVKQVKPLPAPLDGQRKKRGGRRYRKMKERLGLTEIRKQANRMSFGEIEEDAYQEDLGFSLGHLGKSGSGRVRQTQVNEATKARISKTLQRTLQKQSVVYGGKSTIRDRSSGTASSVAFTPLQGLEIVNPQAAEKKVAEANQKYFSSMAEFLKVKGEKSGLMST
In words: MS-CETSA and IP-MS target engagement. Format: binding. Also noted: endogenous in cells; host or cells: Kasumi-1 cell lysate. As for the experimental part: Mass spectrometry cellular thermal shift assay (MS-CETSA, FIG. 12A) as described in (75), and immunoprecipitation using biotinylated LN1632 (FIG. 12B) were performed. […] PRPF31 is recruited to introns where its highly conserved Nop-domain coordinates the U4 snRNA—15.5K protein interaction. Subsequently, PRPF31 stabilizes the U4/U6.U5 tri-snRNP by concomitantly interacting with PRPF6 and induces the transition of the spliceosomal complex to the activated state (78).

As to `CC(=O)Nc1cccc(-c2ccc3ncc(C)n3n2)c1` [JGJ007, N-(3-(3-Methylimidazo[1,2-b]pyridazin-6-yl)phenyl)acetamide], the “Inhibition of LIN28B binding to pre-let-7a (FRET signal)” value in assay [1] is on record as “greater inhibition of the LIN28B/pre-let-7a2 binding than the original compound LN1632”.
In the assay on SW620, `CC(=O)N(C)c1cccc(-c2ccc3nnc(C)n3n2)c1` [LN1632] gave a half-inhibitory concentration (IC50) of 191 µM. The “Mature let-7a/b and let-7 target gene expression” value in assay [2] was “dose-dependent, significant upregulation of mature let-7a/b and downregulation of multiple let-7 target genes”. Further, at PRPF31, the “Interaction partners by MS-CETSA and immunoprecipitation” value is on record as “interacts with additional RNA-binding proteins, in particular pre-mRNA processing factor 31”. The “Tm shift (MS-CETSA)” value at PRPF31 (Kasumi-1 cell lysate) is recorded as “induces Tm shift of endogenous PRPF31”. Also, the “IP-MS capture with biotinylated LN1632, competitive elution” value at PRPF31 (n=3) is “captures PRPF31”.

For orientation: IC50 means the concentration that gives 50% inhibition. Read a low IC50 as greater potency.
